As a reminder, the Ki is a dissociation constant, usually derived from enzyme kinetics or from competition with a known ligand. Low values mean tighter binding, high ones weaker binding. Usually % inhibition stands for the relative decrease from the control value, in per cent. Lower therefore signals a response near the control.

The target of data set [1] is MDR-1 (Homo sapiens, UniProt P08183). Description: Rhodamine 123 uptake in cells overexpressing MDR-1. The data set is classed as cell-based. The settings on record: 100 μM.
Sequence of MDR-1 (P08183 whole entry): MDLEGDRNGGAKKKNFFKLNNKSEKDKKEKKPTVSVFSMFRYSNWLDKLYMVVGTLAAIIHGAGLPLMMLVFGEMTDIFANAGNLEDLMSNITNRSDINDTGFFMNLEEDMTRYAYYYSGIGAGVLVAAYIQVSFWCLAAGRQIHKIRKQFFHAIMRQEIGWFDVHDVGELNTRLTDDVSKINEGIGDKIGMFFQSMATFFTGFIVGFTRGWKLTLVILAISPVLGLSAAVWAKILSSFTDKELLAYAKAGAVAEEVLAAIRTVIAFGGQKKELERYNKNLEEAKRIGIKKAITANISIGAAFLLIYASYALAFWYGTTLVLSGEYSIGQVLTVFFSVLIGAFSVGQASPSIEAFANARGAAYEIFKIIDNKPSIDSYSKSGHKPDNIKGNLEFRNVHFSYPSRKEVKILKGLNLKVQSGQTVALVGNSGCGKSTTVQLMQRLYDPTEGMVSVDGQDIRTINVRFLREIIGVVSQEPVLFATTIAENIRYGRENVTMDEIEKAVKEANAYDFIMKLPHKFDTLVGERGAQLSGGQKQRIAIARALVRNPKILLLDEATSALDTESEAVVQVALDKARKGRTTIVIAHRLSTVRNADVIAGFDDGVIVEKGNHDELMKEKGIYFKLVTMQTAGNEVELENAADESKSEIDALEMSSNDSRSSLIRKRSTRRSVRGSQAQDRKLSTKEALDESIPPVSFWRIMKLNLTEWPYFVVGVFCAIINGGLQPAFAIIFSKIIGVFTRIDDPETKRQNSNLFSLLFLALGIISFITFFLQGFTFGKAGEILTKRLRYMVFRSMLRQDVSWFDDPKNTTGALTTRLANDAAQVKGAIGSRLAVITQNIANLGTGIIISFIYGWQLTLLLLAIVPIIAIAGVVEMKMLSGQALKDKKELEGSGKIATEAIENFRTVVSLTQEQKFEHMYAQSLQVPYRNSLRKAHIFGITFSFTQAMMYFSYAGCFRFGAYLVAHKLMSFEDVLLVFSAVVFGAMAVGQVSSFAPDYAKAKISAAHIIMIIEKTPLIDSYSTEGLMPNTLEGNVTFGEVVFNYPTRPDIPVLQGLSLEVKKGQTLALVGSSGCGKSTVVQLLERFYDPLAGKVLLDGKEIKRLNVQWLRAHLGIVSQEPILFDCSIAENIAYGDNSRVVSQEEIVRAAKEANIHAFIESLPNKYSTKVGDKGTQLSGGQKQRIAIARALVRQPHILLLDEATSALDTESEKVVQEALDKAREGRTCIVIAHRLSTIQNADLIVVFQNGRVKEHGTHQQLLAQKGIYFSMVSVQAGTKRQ
The target of data set [2] is T1, CFTR (Homo sapiens, UniProt P13569). Put plainly: Apical Cl− current in CFTR-expressing FRT cells. The format is cell-based. The settings on record: for Ki: Ki is compound concentration giving 50% inhibition of apical membrane Cl− current in CFTR-expressing FRT cells; for % inhibition at 50 μM: apical membrane Cl− current, FRT cells.
T1 sequence (P13569 whole entry): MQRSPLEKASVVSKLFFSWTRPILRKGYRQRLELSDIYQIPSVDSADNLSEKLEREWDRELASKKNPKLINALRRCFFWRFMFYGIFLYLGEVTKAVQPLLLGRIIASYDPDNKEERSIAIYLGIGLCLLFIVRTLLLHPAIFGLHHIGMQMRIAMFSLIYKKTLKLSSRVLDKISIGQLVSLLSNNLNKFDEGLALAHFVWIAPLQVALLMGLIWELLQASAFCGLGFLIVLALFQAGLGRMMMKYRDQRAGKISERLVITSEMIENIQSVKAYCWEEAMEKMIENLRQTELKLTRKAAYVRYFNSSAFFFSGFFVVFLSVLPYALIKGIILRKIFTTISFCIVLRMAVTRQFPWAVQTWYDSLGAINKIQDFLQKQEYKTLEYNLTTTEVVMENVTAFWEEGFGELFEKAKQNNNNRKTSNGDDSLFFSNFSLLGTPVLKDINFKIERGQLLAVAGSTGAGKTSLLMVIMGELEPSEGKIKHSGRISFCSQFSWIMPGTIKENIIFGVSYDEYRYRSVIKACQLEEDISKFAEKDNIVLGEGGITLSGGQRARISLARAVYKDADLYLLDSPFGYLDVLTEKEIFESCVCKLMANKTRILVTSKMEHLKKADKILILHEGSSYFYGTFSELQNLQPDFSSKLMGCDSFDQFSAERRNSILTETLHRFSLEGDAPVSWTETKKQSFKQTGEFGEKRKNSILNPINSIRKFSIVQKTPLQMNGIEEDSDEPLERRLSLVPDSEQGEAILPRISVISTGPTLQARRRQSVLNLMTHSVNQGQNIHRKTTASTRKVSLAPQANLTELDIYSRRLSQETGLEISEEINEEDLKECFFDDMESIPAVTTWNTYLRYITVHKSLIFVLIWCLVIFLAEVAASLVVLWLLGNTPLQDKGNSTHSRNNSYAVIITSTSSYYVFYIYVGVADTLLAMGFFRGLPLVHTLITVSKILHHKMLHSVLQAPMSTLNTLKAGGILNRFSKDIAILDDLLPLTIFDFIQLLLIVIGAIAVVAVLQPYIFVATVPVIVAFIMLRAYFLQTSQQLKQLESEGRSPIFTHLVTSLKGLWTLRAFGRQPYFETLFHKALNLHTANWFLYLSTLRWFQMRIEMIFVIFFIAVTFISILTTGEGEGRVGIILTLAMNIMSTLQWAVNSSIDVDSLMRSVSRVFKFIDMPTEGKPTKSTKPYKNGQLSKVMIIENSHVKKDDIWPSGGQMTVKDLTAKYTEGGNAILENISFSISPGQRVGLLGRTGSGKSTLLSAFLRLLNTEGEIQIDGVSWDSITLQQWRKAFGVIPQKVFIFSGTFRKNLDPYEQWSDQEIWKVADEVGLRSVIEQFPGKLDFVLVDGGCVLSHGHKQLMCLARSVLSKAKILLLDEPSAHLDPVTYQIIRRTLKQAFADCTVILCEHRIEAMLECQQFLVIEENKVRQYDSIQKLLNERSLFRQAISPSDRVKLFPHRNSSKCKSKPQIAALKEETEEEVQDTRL
The test system of data set [3] is CFTR. The format is in vivo. As to conditions: 100 μM in all solutions; mice.
Data set [4] addresses T1, CFTR. The settings on record: read-out: concentration giving 50% inhibition of CFTR Cl− channel function; intact cells, depending on cell type and membrane potential; ref Ma et al., 2002a; Taddei et al., 2004; cited from earlier work.

For the compound `COc1ccc(CCN(C)CCCC(C#N)(c2ccc(OC)c(OC)c2)C(C)C)cc1OC` (stereo not shown) [verapamil], in data set [1], the “increase of rhodamine 123 incorporation” value was “greater than fivefold”. In turn, `Cc1ccc(NCC(=O)NN=Cc2cc(Br)c(O)c(Br)c2O)cc1` [GlyH-116] had an inhibitory constant (Ki) in data set [2] of 10 µM. Same read-out and setting: as for `Cc1ccccc1NCC(=O)NN=Cc1cc(Br)c(O)c(Br)c1O` [GlyH-117], the figure is 25 to 50 µM. For `O=C(NNCc1cc(Br)c(O)c(Br)c1)C(=O)Nc1ccc2ccccc2c1` [OxaH-304], in data set [2], the “% inhibition at 50 μM” value is on record as 78% and the Ki stood at 12 µM.

Turning to `O=C(COc1ccc2ccccc2c1)NN=Cc1cc(Br)c(O)c(Br)c1O` [AceH-401], in data set [2], the “% inhibition at 50 μM” value came to 84% and the Ki is 21 µM. As to `O=C(NN=Cc1cc(Br)c(O)c(Br)c1O)C(=O)Nc1ccc2ccccc2c1` [OxaH-203], the Ki in data set [2] was greater than 50 µM. Turning to `O=C(COc1ccc2ccccc2c1)NN=Cc1cc(Br)c(O)c(Br)c1` [AceH-402], in data set [2], the “% inhibition at 50 μM” value is reported as 86% and the Ki worked out at 17 µM.

For the compound `COc1c(Br)cc(C=NNC(=O)CNc2ccc3ccccc3c2)c(O)c1Br` [GlyH-103], in data set [2], the “% inhibition at 50 μM” value came to 56% and affinity was put at a Ki of 20 µM.

For the compound `O=C(CNc1ccc(Cl)cc1)NN=Cc1cc(Br)c(O)c(Br)c1` [GlyH-114], the Ki in data set [2] came to 5 µM. Still for that read-out and setting: the result for `O=C(CNc1ccc2ccccc2c1)NN=Cc1ccc(Br)cc1` [GlyH-120] reads 25 to 50 µM; that for `O=C(CNc1ccc2cc3ccccc3cc2c1)NN=Cc1cc(Br)c(O)c(Br)c1O` [GlyH-124], 25 to 50 µM.

Turning to `O=C(NNC(=O)c1cc(Br)c(O)c(Br)c1)C(=O)Nc1ccc2ccccc2c1` [OxaH-204], the Ki in data set [2] is greater than 50 µM. Same read-out and setting: the result for `CC(=NNC(=O)C(=O)Nc1ccc2ccccc2c1)c1cc(Br)c(O)c(Br)c1O` [OxaH-112] reads 3 µM; that for `O=C(CNc1ccc(Cl)cc1)NN=Cc1cc(Br)c(O)c(Br)c1O` [GlyH-115], 6.7 µM; that for `O=C(CNc1ccc(Cl)cc1)NN=Cc1ccc(O)cc1O` [GlyH-123], 25 to 50 µM.

Turning to `O=C(CNc1ccc2ccccc2c1)NNC(=O)c1cc(Br)c(O)c(Br)c1` [GlyH-202, 3,5-Dibromo-4-hydroxy-[2-(2-naphthalenamine)aceto] Benzoic Acid Hydrazide], in data set [2], the “% inhibition at 50 μM” value is recorded as 57% and the Ki is 22 µM. With `CC(=NNC(=O)CNc1ccc2ccccc2c1)c1cc(Br)c(O)c(Br)c1` [GlyH-109], affinity in data set [2] was put at a Ki of 4.7 µM. On to `O=C(NNCc1cc(Br)c(O)c(Br)c1O)C(=O)Nc1ccc2ccccc2c1` [OxaH-303], for which, in data set [2], the “% inhibition at 50 μM” value was 70% and the Ki worked out at 10 µM. Consider `O=C(CNc1cccc2ccccc12)NN=Cc1ccc(O)c(Br)c1` [GlyH-118], for which the Ki in data set [2] fell in the range of 25 to 50 µM. For `O=S(=O)(O)c1cc(N=C=S)ccc1C=Cc1ccc(N=C=S)cc1S(=O)(=O)O` [DIDS], in data set [3], the “inhibition of the (CFTR-independent) hyperpolarization produced by low Cl−” value is on record as “partial inhibition”. `O=C(CNc1ccc2cc3ccccc3cc2c1)NN=Cc1cc(Br)c(O)c(Br)c1` [GlyH-125] gave a Ki in data set [2] of 25 to 50 µM. For `O=C(O)c1ccc(/C=C2\SC(=S)N(c3cccc(C(F)(F)F)c3)C2=O)cc1` [CFTRinh-172], the IC50 in data set [4] is 0.3 to 3 µM.

The values above are taken from publication PMC2229623 (The Journal of General Physiology, 2004).
